One may read the Ki as the equilibrium dissociation constant of an inhibitor or competing ligand from its target.

Experiment [1] relates to Male ICR mouse. The experiment in a line: Hyperactivity caused by MK-801 in mice, infrared motion measurement. Particulars: oral, MK-801 0.3 mg/kg i.p., P<0.05. The format is in vivo. How it is done: (§1) Various Drug Evaluations on a Drug for Increasing the Motion of Mice (methamphetamine, MK-801) (Radiated Infrared Motion Measurement)
(§2) An effect of the compound (I) on improvement on schizophrenia by was evaluated by measuring the inhibited motion through the administration of the compound in a model having a symptom caused by methamphetamine (which is hereinafter simply referred to MAP) and MK-801.
(§3) An animal was taken out of a breeding cage, orally administered with a compound to be tested, and then placed into a cage for breeding. After 30 minutes, the animal was put into a cage for measurement, and the motion with the compound to be tested alone was measured. Further, after 30 to 90 minutes, the animal was taken out, and intraperitoneally administered with a drug for increasing the motion (MAP; 1 mg/kg or MK-801; 0.3 mg/kg, dissolved in a physiological saline, respectively). Then, the motion for a certain period of time (60 minutes) was measured by using a motion measurement device (CompACT AMS from Muromachi Kikai Co., Ltd.) by means of an infrared sensor.
(§4) For a normal mouse (a mouse administered with physiological saline) and a mouse administered with a drug for increasing the motion, a Student's T test was performed for evaluation for each interval. […]

Another experiment has as its target T1, human 5-HT5A receptor (Homo sapiens, UniProt P47898).
T1 construct: expressed in transfected cells; membrane preparation
Put plainly: Test on a human 5-HT5A receptor binding inhibition ([3H]5-CT). Particulars: membrane from HEK293 cells expressing human 5-HT5A receptor; Ki calculated from IC50 and Kd 4.95 nM. In short, it runs like this:
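Membranes came from G418-selected HEK293 cells expressing human 5-HT5A, in Tris pH 7.4 with MgSO4 and EDTA. They were preincubated 15 min at RT with compound, then 2 nM [3H]5-CT solution was added for 60 min at 37 °C, followed by GF/C filtration and counting. IC50 used 1 µM 5-CT as 100%; Ki by Cheng–Prusoff (Kd 4.95 nM, Scatchard).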

The next experiment deals with Male ddY mouse. The experiment in a line: Spontaneous alternation behavior (Y-maze) impaired by Scoporamine in mice. The format is in vivo. Particulars: dose of 0.03 mg/kg, oral, Scoporamine 0.5 mg/kg i.p., p<0.05. The method, then:
An improvement effect for spontaneous alternation behavior caused by Scoporamine or MK-801 in mice
An effect of the compound (I) on improvement on cognitive impairment was evaluated by using a known performance test method as a model with short-term learning disorder.
The compound to be tested was administered orally 10 to 30 minutes before the test, and 0.5 mg/kg Scoporamine or 0.15 mg/kg MK-801 (for a normal group, physiological saline) was administered intraperitoreally, and the test was performed after 20 minutes. […]
A mouse was placed at the end of one arm of a Y-maze having arms with the same length in three directions, and then explored freely and the number of arm entries was counted for 8 minutes. […] The ratio of the number of the behaviors to the total number of entries was calculated as an alternation rate by the following formula: […]
If a significant difference between the normal group and the control group (Student's t test) was approved in the alternation rate (%), it was considered to have learning disorder by the administration of Scoporamine or MK-801. By carrying out a Dunnett's test on the group administered with the compound to be tested relative to the control group, the presence or absence of an action of the compound to be tested on learning disorder was evaluated. […]

Experiment [2] relates to Male ICR mouse. Put plainly: Hyperactivity caused by methamphetamine (MAP) in mice, infrared motion measurement. Particulars: dose of 0.03 mg/kg, oral; MAP 1 mg/kg i.p.; P<0.05. The experiment is classed as in vivo. How it is done:
as §1, §2, §3, §4

T1 sequence (P47898 whole entry): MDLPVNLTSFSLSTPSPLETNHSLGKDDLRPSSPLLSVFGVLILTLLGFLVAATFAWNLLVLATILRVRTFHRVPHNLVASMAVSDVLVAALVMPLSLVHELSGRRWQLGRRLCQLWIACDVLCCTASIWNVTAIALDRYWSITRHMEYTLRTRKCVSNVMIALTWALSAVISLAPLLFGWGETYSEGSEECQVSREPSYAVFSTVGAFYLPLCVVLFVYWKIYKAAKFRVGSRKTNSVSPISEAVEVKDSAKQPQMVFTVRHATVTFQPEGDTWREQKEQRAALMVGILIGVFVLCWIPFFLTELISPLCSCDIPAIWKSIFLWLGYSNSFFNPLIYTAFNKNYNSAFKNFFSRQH

Regarding `Cc1ccc(C2=CCOc3ccc(C(=O)N=C(N)N)cc32)c(F)c1` [Example 1-47], in the experiment on Male ICR mouse [1] (dose of 0.1 mg/kg), the “inhibition of hyperactivity caused by MK-801” value is “significantly inhibited”. Moreover, the inhibitory constant (Ki) on human 5-HT5A receptor is 0.3 to 3 nM.

As for `COc1ccccc1C1=CCCc2ccc(C(=O)N=C(N)N)cc21` [Example 2-06], the “inhibition of hyperactivity caused by MK-801” value with Male ICR mouse [1] (dose of 0.03 mg/kg) is listed as “significantly inhibited”. Moreover, the inhibitory constant (Ki) on human 5-HT5A receptor was 0.3 to 3 nM.

For the molecule `NC(N)=NC(=O)c1ccc2c(c1)C(c1ccccc1)=CCC2` [Example 2-37], the “improvement of alternation rate impaired by Scoporamine” value in the experiment on Male ddY mouse is reported as “significantly improved”. For the same molecule, in the experiment on Male ICR mouse [2], the “inhibition of hyperactivity caused by methamphetamine” value is given as “significantly inhibited”. Moreover, at human 5-HT5A receptor, the Ki was 0.3 to 3 nM.

As for `COc1ccccc1C1=CCSc2ccc(C(=O)N=C(N)N)cc21` [Example 3-18], the Ki on human 5-HT5A receptor was 30 to 300 nM.

On to `N#Cc1ccccc1C1=CCSc2ccc(C(=O)N=C(N)N)cc21` [Example 3-19], for which the Ki at human 5-HT5A receptor is 3 to 30 nM.

Consider `COc1ccc(-c2csc3ccc(C(=O)N=C(N)N)cc23)c(OC)c1` [Example 3-20], for which, on human 5-HT5A receptor, the inhibition constant (Ki) was 3 to 30 nM.

On to `COc1ccc(-c2csc3ccc(C(=O)N=C(N)N)cc23)cc1` [Example 3-24], for which the inhibition constant (Ki) at human 5-HT5A receptor was 3 to 30 nM.

For the molecule `NC(N)=NC(=O)c1ccc2scc(-c3ccc(F)cc3)c2c1` [Example 3-25], the Ki on human 5-HT5A receptor was 0.3 to 3 nM.

With `NC(N)=NC(=O)c1ccc2scc(-c3ccccc3F)c2c1` [Example 3-26], the Ki at human 5-HT5A receptor is 0.3 to 3 nM.

Turning to `COc1c(F)cccc1-c1csc2ccc(C(=O)N=C(N)N)cc12` [Example 3-27], the Ki at human 5-HT5A receptor is 3 to 30 nM.

Take `COc1ccc(F)cc1-c1csc2ccc(C(=O)N=C(N)N)cc12` [Example 3-28]: on human 5-HT5A receptor, the Ki was 3 to 30 nM.

With `NC(N)=NC(=O)c1ccc2scc(-c3ccccc3O)c2c1` [Example 3-29], the Ki at human 5-HT5A receptor was 0.3 to 3 nM.

In the case of `NC(N)=NC(=O)c1ccc2scc(-c3ccc(F)cc3F)c2c1` [Example 3-30], the Ki at human 5-HT5A receptor was 0.3 to 3 nM.

In the case of `NC(N)=NC(=O)c1ccc2c(c1)C(c1c(F)cc(F)cc1F)CCO2` (stereo not shown) [Example 3-31], at human 5-HT5A receptor, the inhibition constant (Ki) is 3 to 30 nM.

With `NC(N)=NC(=O)c1ccc2scc(-c3cccnc3)c2c1` [Example 3-32], the Ki at human 5-HT5A receptor was 30 to 300 nM.

Turning to `COc1ccccc1-c1c(C)sc2ccc(C(=O)N=C(N)N)cc12` [Example 3-33], the Ki at human 5-HT5A receptor is 0.3 to 3 nM.

As for `CC1(C)CCC(c2c(F)cc(F)cc2F)c2cc(C(=O)N=C(N)N)ccc21` (stereo not shown) [Example 3-34], on human 5-HT5A receptor, the Ki is 30 to 300 nM.

On to `Cc1sc2ccc(C(=O)N=C(N)N)cc2c1-c1ccccc1F` [Example 3-35], for which the Ki on human 5-HT5A receptor is 0.3 to 3 nM.

Regarding `NC(N)=NC(=O)c1ccc2scc(-c3ccncc3)c2c1` [Example 3-37], on human 5-HT5A receptor, the inhibition constant (Ki) was 30 to 300 nM.

For `N#Cc1ccccc1-c1csc2ccc(C(=O)N=C(N)N)cc12` [Example 3-38], at human 5-HT5A receptor, the Ki is 3 to 30 nM.

Turning to `COc1ccccc1-c1c(C#N)sc2ccc(C(=O)N=C(N)N)cc12` [Example 3-39], the inhibitory constant (Ki) at human 5-HT5A receptor was 3 to 30 nM.
